Laboratory results: ChEMBL document CHEMBL3885861, “Open TG-GATES”

Species on record: Rattus norvegicus
Test: Open TG-GATES - Regimen: Daily Repeat
Assay type: toxicity, organism-based, Sprague-Dawley
Parameters: regimen Daily Repeat, gender Male, age 6 weeks
Conditions: in vivo, po, route gavage; for APTT / Bas / Eos / Fbg / Hb / Ht / Lym / MCH / MCHC / MCV / Mono / Neu / PT / Plat / RBC / Ret / WBC: tissue Blood; for KIDNEY_L / KIDNEY_R / KIDNEY_TOTAL: tissue Kidney; for LIVER: tissue Liver; for A/G / ALP / ALT / AST / BUN / CRE / Ca / Cl / DBIL / GLC / IP / K / LDH / Na / PL / RALB / TBIL / TC / TG / TP / gamma-GTP: tissue Plasma
[1] = 0 mg/kg, 72 h, dose level Control, time 3 day
[2] = 0 mg/kg, […], dose level Control, time 7 day
[3] = 0 mg/kg, […], dose level Control, time 14 day
[4] = 0 mg/kg, […], dose level Control, time 28 day
[5] = 100 mg/kg, 72 h, dose level Low, time 3 day
[6] = 100 mg/kg, […], dose level Low, time 7 day
[7] = 100 mg/kg, […], dose level Low, time 14 day
[8] = 100 mg/kg, […], dose level Low, time 28 day

## CNC(=C[N+](=O)[O-])NCCSCc1ccc(CN(C)C)o1 [RANITIDINE]
[1]
  TERMINAL_BW: 234.4 g
  APTT: 18.8 s
  Bas: 0%
  Eos: 1%
  Fbg: 243.4 mg/dL
  Hb: 13.9 g/dL
  Ht: 40.4%
  Lym: 79.8%
  MCH: 22.1 pg
  MCHC: 34.4%
  MCV: 64.2 fL
  Mono: 2.6%
  Neu: 15.2%
  PT: 11.9 s
  Plat: 112 x10_4/uL
  RBC: 629.4 x10_4/ul
  Ret: 5.1%
  WBC: 95.3 x10_2/uL
  KIDNEY_L: 1.1 g
  KIDNEY_R: 1.1 g
  KIDNEY_TOTAL: 2.2 g
  LIVER: 11.5 g
  A/G: 1.6
  ALP: 924 IU/L
  ALT: 35.2 IU/L
  AST: 66.6 IU/L
  BUN: 16.6 mg/dL
  CRE: 0.4 mg/dL
  Ca: 10.9 mg/dL
  Cl: 103.8 meq/L
  DBIL: 0.1 mg/dL
  GLC: 198.8 mg/dL
  IP: 7.4 mg/dL
  K: 4.2 meq/L
  LDH: 178.4 IU/L
  Na: 140.4 meq/L
  PL: 169.6 mg/dL
  RALB: 3.5 g/dL
  TBIL: 0.2 mg/dL
  TC: 92.4 mg/dL
  TG: 92.4 mg/dL
  TP: 5.7 g/dL
  gamma-GTP: 1.2 IU/L
[2]
  TERMINAL_BW: 265.4 g
  APTT: 19.3 s
  Bas: 0%
  Eos: 1.2%
  Fbg: 225.8 mg/dL
  Hb: 13.9 g/dL
  Ht: 39.4%
  Lym: 76.6%
  MCH: 21.8 pg
  MCHC: 35.3%
  MCV: 61.7 fL
  Mono: 2.4%
  Neu: 18.4%
  PT: 12.1 s
  Plat: 120.4 x10_4/uL
  RBC: 639 x10_4/ul
  Ret: 4.9%
  WBC: 90.8 x10_2/uL
  KIDNEY_L: 1.1 g
  KIDNEY_R: 1.1 g
  KIDNEY_TOTAL: 2.2 g
  LIVER: 12.5 g
  A/G: 1.5
  ALP: 967.8 IU/L
  ALT: 31.6 IU/L
  AST: 63.8 IU/L
  BUN: 15.4 mg/dL
  CRE: 0.4 mg/dL
  Ca: 10.6 mg/dL
  Cl: 103.8 meq/L
  DBIL: 0.096 mg/dL
  GLC: 219.2 mg/dL
  IP: 7.4 mg/dL
  K: 3.8 meq/L
  LDH: 164.8 IU/L
  Na: 140.8 meq/L
  PL: 147.4 mg/dL
  RALB: 3.4 g/dL
  TBIL: 0.1 mg/dL
  TC: 73.2 mg/dL
  TG: 103.6 mg/dL
  TP: 5.7 g/dL
  gamma-GTP: 1 IU/L
[3]
  TERMINAL_BW: 305.8 g
  APTT: 20.1 s
  Bas: 0%
  Eos: 1%
  Fbg: 238.8 mg/dL
  Hb: 14.8 g/dL
  Ht: 42.2%
  Lym: 75.6%
  MCH: 20.6 pg
  MCHC: 35.2%
  MCV: 58.6 fL
  Mono: 2.4%
  Neu: 19.2%
  PT: 12 s
  Plat: 115.1 x10_4/uL
  RBC: 720.6 x10_4/ul
  Ret: 3.7%
  WBC: 101.2 x10_2/uL
  KIDNEY_L: 1.2 g
  KIDNEY_R: 1.2 g
  KIDNEY_TOTAL: 2.4 g
  LIVER: 13.5 g
  A/G: 1.4
  ALP: 885.8 IU/L
  ALT: 38.2 IU/L
  AST: 64.2 IU/L
  BUN: 16.2 mg/dL
  CRE: 0.5 mg/dL
  Ca: 10.6 mg/dL
  Cl: 103 meq/L
  DBIL: 0.088 mg/dL
  GLC: 205.2 mg/dL
  IP: 7.2 mg/dL
  K: 3.9 meq/L
  LDH: 177 IU/L
  Na: 141.2 meq/L
  PL: 140.8 mg/dL
  RALB: 3.5 g/dL
  TBIL: 0.2 mg/dL
  TC: 67.2 mg/dL
  TG: 124.8 mg/dL
  TP: 6 g/dL
  gamma-GTP: 1 IU/L
[4]
  TERMINAL_BW: 385.4 g
  APTT: 20.9 s
  Bas: 0.4%
  Eos: 1.4%
  Fbg: 223.8 mg/dL
  Hb: 15.6 g/dL
  Ht: 43.7%
  Lym: 77.8%
  MCH: 20 pg
  MCHC: 35.7%
  MCV: 56.2 fL
  Mono: 2.6%
  Neu: 16.8%
  PT: 12.4 s
  Plat: 106.3 x10_4/uL
  RBC: 779.2 x10_4/ul
  Ret: 2%
  WBC: 91.9 x10_2/uL
  KIDNEY_L: 1.5 g
  KIDNEY_R: 1.4 g
  KIDNEY_TOTAL: 2.9 g
  LIVER: 15.9 g
  A/G: 1.3
  ALP: 677.6 IU/L
  ALT: 31.6 IU/L
  AST: 61.4 IU/L
  BUN: 17.2 mg/dL
  CRE: 0.5 mg/dL
  Ca: 10.4 mg/dL
  Cl: 103 meq/L
  DBIL: 0.092 mg/dL
  GLC: 214.6 mg/dL
  IP: 6.6 mg/dL
  K: 3.9 meq/L
  LDH: 126.8 IU/L
  Na: 140.8 meq/L
  PL: 132.8 mg/dL
  RALB: 3.4 g/dL
  TBIL: 0.1 mg/dL
  TC: 64.2 mg/dL
  TG: 85.8 mg/dL
  TP: 6.2 g/dL
  gamma-GTP: 0.8 IU/L
[5]
  TERMINAL_BW: 232 g
  APTT: 19.5 s
  Bas: 0%
  Eos: 1.4%
  Fbg: 221.4 mg/dL
  Hb: 14 g/dL
  Ht: 40.9%
  Lym: 78.6%
  MCH: 21.7 pg
  MCHC: 34.2%
  MCV: 63.3 fL
  Mono: 2.6%
  Neu: 15.8%
  PT: 11.9 s
  Plat: 129.9 x10_4/uL
  RBC: 646.4 x10_4/ul
  Ret: 5.2%
  WBC: 75.1 x10_2/uL
  KIDNEY_L: 1 g
  KIDNEY_R: 1 g
  KIDNEY_TOTAL: 2 g
  LIVER: 11.2 g
  A/G: 1.6
  ALP: 970 IU/L
  ALT: 34.6 IU/L
  AST: 63.6 IU/L
  BUN: 15.6 mg/dL
  CRE: 0.4 mg/dL
  Ca: 10.8 mg/dL
  Cl: 103.8 meq/L
  DBIL: 0.086 mg/dL
  GLC: 192.8 mg/dL
  IP: 7.4 mg/dL
  K: 4.1 meq/L
  LDH: 185.2 IU/L
  Na: 141.4 meq/L
  PL: 152.6 mg/dL
  RALB: 3.5 g/dL
  TBIL: 0.1 mg/dL
  TC: 82.2 mg/dL
  TG: 80 mg/dL
  TP: 5.7 g/dL
  gamma-GTP: 1 IU/L
[6]
  TERMINAL_BW: 264.8 g
  APTT: 19.8 s
  Bas: 0%
  Eos: 1%
  Fbg: 233.2 mg/dL
  Hb: 14 g/dL
  Ht: 39.9%
  Lym: 81.8%
  MCH: 21.8 pg
  MCHC: 35.2%
  MCV: 62.1 fL
  Mono: 2.6%
  Neu: 13.6%
  PT: 12.3 s
  Plat: 127.2 x10_4/uL
  RBC: 643.2 x10_4/ul
  Ret: 5.2%
  WBC: 99.9 x10_2/uL
  KIDNEY_L: 1.1 g
  KIDNEY_R: 1.1 g
  KIDNEY_TOTAL: 2.2 g
  LIVER: 12.5 g
  A/G: 1.5
  ALP: 852.4 IU/L
  ALT: 32.4 IU/L
  AST: 61.2 IU/L
  BUN: 17.8 mg/dL
  CRE: 0.4 mg/dL
  Ca: 10.8 mg/dL
  Cl: 103 meq/L
  DBIL: 0.1 mg/dL
  GLC: 223.6 mg/dL
  IP: 7.9 mg/dL
  K: 3.9 meq/L
  LDH: 174.4 IU/L
  Na: 139.6 meq/L
  PL: 149.2 mg/dL
  RALB: 3.4 g/dL
  TBIL: 0.2 mg/dL
  TC: 73.2 mg/dL
  TG: 125.4 mg/dL
  TP: 5.6 g/dL
  gamma-GTP: 1.2 IU/L
[7]
  TERMINAL_BW: 314.1 g
  APTT: 19.6 s
  Bas: 0%
  Eos: 0.8%
  Fbg: 243.8 mg/dL
  Hb: 14.7 g/dL
  Ht: 40.9%
  Lym: 78.6%
  MCH: 21.7 pg
  MCHC: 36%
  MCV: 60.4 fL
  Mono: 2%
  Neu: 16.4%
  PT: 11.9 s
  Plat: 101 x10_4/uL
  RBC: 678 x10_4/ul
  Ret: 4%
  WBC: 109.6 x10_2/uL
  KIDNEY_L: 1.2 g
  KIDNEY_R: 1.2 g
  KIDNEY_TOTAL: 2.4 g
  LIVER: 14.7 g
  A/G: 1.4
  ALP: 793 IU/L
  ALT: 35.6 IU/L
  AST: 63.2 IU/L
  BUN: 16.4 mg/dL
  CRE: 0.5 mg/dL
  Ca: 10.7 mg/dL
  Cl: 103.6 meq/L
  DBIL: 0.1 mg/dL
  GLC: 190.4 mg/dL
  IP: 6.9 mg/dL
  K: 3.9 meq/L
  LDH: 180 IU/L
  Na: 142 meq/L
  PL: 159.4 mg/dL
  RALB: 3.5 g/dL
  TBIL: 0.2 mg/dL
  TC: 75.6 mg/dL
  TG: 152 mg/dL
  TP: 6 g/dL
  gamma-GTP: 1.2 IU/L
[8]
  TERMINAL_BW: 381.6 g
  APTT: 20.9 s
  Bas: 0.2%
  Eos: 1%
  Fbg: 228.8 mg/dL
  Hb: 15.7 g/dL
  Ht: 45.1%
  Lym: 82.6%
  MCH: 19.8 pg
  MCHC: 34.9%
  MCV: 56.5 fL
  Mono: 1.8%
  Neu: 12.8%
  PT: 12.2 s
  Plat: 103.7 x10_4/uL
  RBC: 797.4 x10_4/ul
  Ret: 1.8%
  WBC: 119.7 x10_2/uL
  KIDNEY_L: 1.4 g
  KIDNEY_R: 1.3 g
  KIDNEY_TOTAL: 2.7 g
  LIVER: 15.5 g
  A/G: 1.3
  ALP: 621.4 IU/L
  ALT: 32.8 IU/L
  AST: 63.4 IU/L
  BUN: 17.2 mg/dL
  CRE: 0.5 mg/dL
  Ca: 10.3 mg/dL
  Cl: 103.2 meq/L
  DBIL: 0.094 mg/dL
  GLC: 220.2 mg/dL
  IP: 6.6 mg/dL
  K: 3.6 meq/L
  LDH: 164.4 IU/L
  Na: 141.4 meq/L
  PL: 138.4 mg/dL
  RALB: 3.5 g/dL
  TBIL: 0.2 mg/dL
  TC: 65.2 mg/dL
  TG: 107.2 mg/dL
  TP: 6.3 g/dL
  gamma-GTP: 1.2 IU/L
